Experimental data taken from patent US20080312192A1, “Diaryl Urea Derivatives in the Treatment of Protein Kinase Dependent Diseases” (priority 2003, published 2008).

Legend:
Flt-3 = molecular target: T1, Flt-3 (Homo sapiens, UniProt P36888); assay: Flt-3 kinase inhibition (GST-Flt-3, 33P incorporation into poly(Glu,Tyr)); format: biochemical
T1 construct: amino acids 563-993 of the cytoplasmic kinase domain of human Flt-3; made in house; host or cells: Sf9 insect cells (baculovirus, vector pFbacG01)
T1 sequence (P36888 563-993): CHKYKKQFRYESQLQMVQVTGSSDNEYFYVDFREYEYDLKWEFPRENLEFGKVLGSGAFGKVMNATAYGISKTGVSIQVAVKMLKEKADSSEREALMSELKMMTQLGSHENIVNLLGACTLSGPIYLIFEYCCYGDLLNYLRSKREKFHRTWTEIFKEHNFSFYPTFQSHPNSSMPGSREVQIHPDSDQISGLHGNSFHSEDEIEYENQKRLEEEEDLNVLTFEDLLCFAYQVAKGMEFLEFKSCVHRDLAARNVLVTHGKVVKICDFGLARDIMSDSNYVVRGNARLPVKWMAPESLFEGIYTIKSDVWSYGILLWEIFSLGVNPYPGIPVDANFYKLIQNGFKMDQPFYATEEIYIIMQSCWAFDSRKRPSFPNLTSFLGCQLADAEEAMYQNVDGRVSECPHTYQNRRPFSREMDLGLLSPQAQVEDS
Method: Flt-3 kinase inhibition is determined as follows: The baculovirus donor vector pFbacG01 (GIBCO) is used to generate a recombinant baculovirus expressing the amino acid region amino acids 563-993 of the cytoplasmic kinase domain of human Flt-3. The coding sequence for the cytoplasmic domain of Flt-3 is amplified by PCR from human c-DNA libraries (Clontech). The amplified DNA fragments and the pFbacG01 vector are made compatible for ligation by digestion with BamHI and HindIII. Ligation of these DNA fragments results in the baculovirus donor plasmid pFbacG01-Flt-3. The production of the viruses, the expression of proteins in Sf9 cells and the purification of the GST-fused proteins are performed as follows:
Production of virus: The baculovirus donor plasmid (pFbacG01-Flt-3) containing the Flt-3 kinase domain is transfected into the DH10Bac cell line (GIBCO) and the transfected cells are plated on selective agar plates. Colonies without insertion of the fusion sequence into the viral genome (carried by the bacteria) are blue. Single white colonies are picked and viral DNA (bacmid) is isolated from the bacteria by standard plasmid purification procedures. Sf9 or Sf21 cells (American Type Culture Collection) are then transfected in flasks with the viral DNA using Cellfectin reagent.
Protein expression in Sf9 cells: Virus containing media is collected from the transfected cell culture and used for infection to increase its titre. Virus containing media obtained after two rounds of infection is used for large-scale protein expression. For large-scale protein expression 100 cm^2 round tissue culture plates are seeded with 5×10^7 cells/plate and infected with 1 mL of virus-containing media (approx. 5 MOIs). After 3 days the cells are scraped off the plate and centrifuged at 500 rpm for 5 min. Cell pellets from 10-20, 100 cm^2 plates are resuspended in 50 mL of ice-cold lysis buffer (25 mM Tris-HCl, pH 7.5, 2 mM EDTA-1% NP-40. 1 mM DTT, 1 mM PMSF). The cells are stirred on ice for 15 min and then centrifuged at 5000 rpms for 20 min.
Purification of GST-tagged protein: The centrifuged cell lysate is loaded onto a 2 mL glutathione-sepharose column (Pharmacia) and washed three times with 10 mL of 25 mM Tris-HCl, pH 7.5, 2 mM EDTA, 1 mM DTT, 200 mM NaCl. The GST-tagged protein is then eluted by 10 applications (1 mL each) of 25 mM Tris-HCl, pH 7.5, 10 mM reduced-glutathione, 100 mM NaCl, 1 mM DTT, 10% Glycerol and stored at −70° C.
Measurement of enzyme activity: Tyrosine protein kinase assays with purified GST-Flt-3 protein are carried out in a final volume of 30 μL containing 200-1800 ng of enzyme protein (depending on the specific activity), 20 mM Tris-HCl, pH 7.6, 3 mM MnCl2, 3 mM MgCl2, 1 mM DTT, 10 μM Na3VO4, 3 μg/mL poly(Glu, Tyr) 4:1, 1% DMSO, 8.0 μM ATP and 0.1 μCi [γ^33 P] ATP. The activity is assayed in the presence or absence of inhibitors, by measuring the incorporation of ^33P from [γ^33P] ATP into the poly(Glu,Tyr) substrate. The assay (30 μL) is carried out in 96-well plates at ambient temperature for 20 min and terminated by the addition of 20 μL of 125 mM EDTA. Subsequently, 40 μL of the reaction mixture is transferred onto Immobilon-PVDF membrane (Millipore, Bedford, Mass., USA) previously soaked for 5 min with methanol, rinsed with water, then soaked for 5 min with 0.5% H3PO4 and mounted on vacuum manifold with disconnected vacuum source. After spotting all samples, vacuum is connected and each well rinsed with 200 μL 0.5% H3PO4. Membranes are removed and washed 4× on a shaker with 1.0% H3PO4, once with ethanol. Membranes are counted after drying at ambient temperature, mounting in Packard TopCount 96-well frame, and addition of 10 μL/well of Microscint™ (Packard). IC50 values are calculated by linear regression analysis of the percentage inhibition of each compound in duplicate, at four concentrations (usually 0.01, 0.1, 1 and 10 μM). One unit of protein kinase activity is defined as 1 nmole of ^33P transferred from [γ3P] […]

| SMILES | melting point [°C] | IC50 (Flt-3) [nM] |
| --- | --- | --- |
| CC(C)N1CCN(Cc2cc(NC(=O)Nc3ccc(Oc4cc(Cl)ncn4)cc3)cc(C(F)(F)F)c2)CC1 [Example 5, N-[4-(6-Chloro-pyrimidin-4-yloxy)-phenyl]-N′-[3-(4-isopropylpiperazin-1-ylmethyl)-5-trifluoromethyl-phenyl]-urea] | 101 | 540 |
| CN1CCN(Cc2cc(NC(=O)Nc3ccc(Oc4cc(Cl)ncn4)cc3)cc(C(F)(F)F)c2)CC1 [Example 9, N-[4-(6-Chloro-Pyrimidin-4-yloxy)-phenyl]-N′-[3-(4-methylpiperazin-1-ylmethyl)-5-trifluoromethyl-phenyl]-urea] | 291 to 292 | 320 |
| CCN(CC)Cc1cc(NC(=O)Nc2ccc(Oc3cc(NC)ncn3)cc2)cc(C(F)(F)F)c1 [Example 11, N-[4-(6-Methylamino-pyrimidin-4-yloxy)-phenyl]-N′-(3-diethylaminomethyl-5-trifluoromethyl-phenyl)-urea] | 68 to 70 | 230 |
| CCN(CC)Cc1cc(NC(=O)Nc2ccc(Oc3cc(N)ncn3)cc2)cc(C(F)(F)F)c1 [Example 13, N-[4-(6-Amino-pyrimidin-4-yloxy)-phenyl]-N′-(3-diethylaminomethyl-5-trifluoromethyl-phenyl)-urea] | 63 to 65 | 340 |
| CN(C)Cc1ccc(NC(=O)Nc2ccc(Oc3cc(Cl)ncn3)cc2)cc1C(F)(F)F [Example 20-2, N-[4-(6-Chloro-pyrimidin-4-yloxy)-phenyl]-N′-[4-(N,N-dimethylamino-methyl)-3-trifluoromethyl-phenyl]-urea] | 98 to 105 |  |
| CCN1CCN(Cc2ccc(NC(=O)Nc3ccc(Oc4cc(Cl)ncn4)cc3)cc2)CC1 [Example 27, N-[4-(6-Chloro-pyrimidin-4-yloxy)-phenyl]-N′-[4-(4-ethylpiperazin-1-ylmethyl)-phenyl]-urea] | 203 to 204 |  |
| CCN1CCN(Cc2ccc(NC(=O)Nc3ccc(Oc4cc(N)ncn4)cc3)cc2C)CC1 [Example 34g.3] |  | 378 |
| CNc1cc(Oc2ccc(NC(=O)Nc3ccc(CN4CCCC4)c(C(F)(F)F)c3)cc2)ncn1 [Example 34j.1] |  | 250 |
| Nc1cc(Oc2ccc(NC(=O)Nc3ccc(CN4CCCC4)c(C(F)(F)F)c3)cc2)ncn1 [Example 34j.3] |  | 283 |
| CNc1cc(Oc2ccc(NC(=O)Nc3ccc(CN4CCOCC4)c(C(F)(F)F)c3)cc2)ncn1 [Example 34k.1] |  | 130 |
| Nc1cc(Oc2ccc(NC(=O)Nc3ccc(CN4CCOCC4)c(C(F)(F)F)c3)cc2)ncn1 [Example 34k.3] |  | 100 |
| CNc1cc(Oc2ccc(NC(=O)Nc3ccc(CN(C)C)c(C(F)(F)F)c3)cc2)ncn1 [Example 34l.1] |  | 620 |
| CCN(CC)Cc1ccc(NC(=O)Nc2ccc(Oc3cc(NC)ncn3)cc2)cc1C(F)(F)F [Example 34m.1] |  | 400 |
| CCN(CC)Cc1ccc(NC(=O)Nc2ccc(Oc3cc(N)ncn3)cc2)cc1C(F)(F)F [Example 34m.3] |  | 200 |
| CN(C)CCCN(C)Cc1ccc(NC(=O)Nc2ccc(Oc3cc(N)ncn3)cc2)cc1C(F)(F)F [Example 34n.3] |  | 200 |
| CNc1cc(Oc2ccc(NC(=O)Nc3ccc(CN4CCN(Cc5ccc(OC)cc5)CC4)c(C(F)(F)F)c3)cc2)ncn1 [Example 34p.1] |  | 590 |
| Nc1cc(Oc2ccc(NC(=O)Nc3ccc(N4CCC(N5CCCCC5)CC4)c(C(F)(F)F)c3)cc2)ncn1 [Example 34s.2] |  | 240 |
| CC(C)(C)CN1CCN(Cc2ccc(NC(=O)Nc3ccc(Oc4cc(N)ncn4)cc3)cc2C(F)(F)F)CC1 [Example 34t.2] |  | 290 |

| SMILES | melting point [°C] | IC50 (Flt-3) [nM] |
| --- | --- | --- |
| CC(C)(C)CN1CCN(c2ccc(NC(=O)Nc3ccc(Oc4cc(N)ncn4)cc3)cc2C(F)(F)F)CC1 [Example 34u.2] |  | 1500 |
| NC(=O)c1cc(NC(=O)Nc2ccc(Oc3cc(N)ncn3)cc2)cc(C(F)(F)F)c1 [Example 38, 3-{3-[4-(6-Amino-pyrimidin-4-yloxy)-phenyl]-ureido}-5-trifluoromethyl-benzamide] |  | 354 |
| CNC(=O)c1cc(NC(=O)Nc2ccc(Oc3cc(NC)ncn3)cc2)cc(C(F)(F)F)c1 [Example 41, 3-{3-[4-(6-Methylamino-pyrimidin-4-yloxy)-phenyl]-ureido}-N-methyl-5-trifluoromethyl-benzamide] |  | 420 |
| CNC(=O)c1cc(NC(=O)Nc2ccc(Oc3cc(N)ncn3)cc2)cc(C(F)(F)F)c1 [Example 43, 3-{3-[4-(6-Amino-pyrimidin-4-yloxy)-phenyl]-ureido}-N-methyl-5-trifluoromethyl-benzamide] |  | 160 |
| CNc1nccc(Oc2ccc(NC(=O)Nc3ccc(CN(C)C)c(C(F)(F)F)c3)cc2)n1 [Example 48, N-[4-(2-Methylamino-pyrimidin-4-yloxy)-phenyl]-N′-[4-(4-dimethylamino-methyl) 3-trifluoromethyl-phenyl]-urea] |  | 580 |
| Cc1nccn1Cc1ccc(NC(=O)Nc2ccc(Oc3ccnc(N)n3)cc2)cc1C(F)(F)F [Example 51b.1] |  | 130 |
| CNc1nccc(Oc2ccc(NC(=O)Nc3ccc(Cn4ccnc4C)c(C(F)(F)F)c3)cc2)n1 [Example 51b.2] |  | 170 |
| CCN1CCN(Cc2ccc(NC(=O)Nc3ccc(Oc4ccnc(N)n4)cc3)cc2C)CC1 [Example 51d.1] |  | 91 |
| CCN1CCN(Cc2ccc(NC(=O)Nc3ccc(Oc4ccnc(NC)n4)cc3)cc2C)CC1 [Example 51d.2] |  | 135 |
| CCN1CCN(Cc2ccc(NC(=O)Nc3ccc(Oc4ccnc(N)n4)cc3)cc2)CC1 [Example 51e.1] |  | 250 |
| CCN1CCN(Cc2ccc(NC(=O)Nc3ccc(Oc4ccnc(NC)n4)cc3)cc2)CC1 [Example 51e.2] |  | 910 |
| Nc1nccc(Oc2ccc(NC(=O)Nc3cccc(C(F)(F)F)c3)cc2)n1 [Example 52b] |  | 80 |
| Nc1nccc(Oc2ccc(NC(=O)Nc3cc(-c4ccccn4)cc(C(F)(F)F)c3)cc2)n1 [Example 52d] |  | 260 |
| COc1cccc(Nc2cc(Oc3ccc(NC(=O)Nc4ccc(N5CCOCC5)c(C(F)(F)F)c4)cc3)ncn2)c1 [Example 55c] |  | 370 |
| O=C(Nc1ccc(Oc2cc(NC3CCC(O)CC3)ncn2)cc1)Nc1ccc(N2CCOCC2)c(C(F)(F)F)c1 (stereo not drawn) [Example 55d] |  | 970 |
| Nc1cc(Oc2ccc(NC(=O)Nc3ccc(-c4ccccn4)c(C(F)(F)F)c3)cc2)ncn1 [Example 57, 1-[4-(6-Amino-pyrimidin-4-yloxy)-phenyl]-3-(4-pyridin-2-yl-3-trifluoromethyl-phenyl)-urea] |  | 118 |
| CCN1CCN(Cc2ccc(NC(=O)Nc3ccc(Oc4cc(NC(=O)OC)ncn4)cc3)cc2C(F)(F)F)CC1 [Example 70] | 191 to 193 |  |
